Molecular target: endogenous wild-type p53 protein (Homo sapiens, UniProt P04637)
Experiment: Western blot of endogenous wild-type p53 protein degradation in HeLa cells, with rescue by proteasome inhibitor
Assay type: cell-based
Set-up: endogenous in cells
Protocol: In Example 3, degradation (knockdown) of an endogenous wild-type p53 protein in HeLa cells (human cervical cancer cells) to which TIBC-CANDDY_MLN has been added was evaluated by Western blot analysis. At the same time, a rescue of degradation of the p53 protein by a proteasome inhibitor (MLN2238) was evaluated.
HeLa cells were seeded in a 24-well plate at a cell density of 4×10^4 cells/well, and then cultured under conditions of 37° C. and 5 vol % CO2 for 16 hours.
After 16 hours from cell seeding, TIBC-CANDDY_MLN was added to HeLa cells as follows. As a medium, a serum-free medium (37° C.) in which 1 mass % L-glutamine solution (Sigma-Aldrich) was added to D-MEM (high D-glucose, phenol red, sodium pyruvate (Wako Pure Chemical Industries, Ltd.)) was used. It is noted that the L-glutamine solution was added immediately before use. A DMSO solution containing TIBC-CANDDY_MLN was mixed with the medium so that the concentration of DMSO was 1 vol %, and added to each well at 500 μL/well, and cultured under conditions of 37° C. and 5 vol % CO2. As a control, DMSO was used. Furthermore, in addition to an experiment group in which a DMSO solution containing TIBC-CANDDY_MLN had been added, an experiment group in which a DMSO solution containing both TIBC-CANDDY_MLN and MLN2238, or MLN2238 had been added was prepared. […]

endogenous wild-type p53 protein, sequence (P04637 whole entry): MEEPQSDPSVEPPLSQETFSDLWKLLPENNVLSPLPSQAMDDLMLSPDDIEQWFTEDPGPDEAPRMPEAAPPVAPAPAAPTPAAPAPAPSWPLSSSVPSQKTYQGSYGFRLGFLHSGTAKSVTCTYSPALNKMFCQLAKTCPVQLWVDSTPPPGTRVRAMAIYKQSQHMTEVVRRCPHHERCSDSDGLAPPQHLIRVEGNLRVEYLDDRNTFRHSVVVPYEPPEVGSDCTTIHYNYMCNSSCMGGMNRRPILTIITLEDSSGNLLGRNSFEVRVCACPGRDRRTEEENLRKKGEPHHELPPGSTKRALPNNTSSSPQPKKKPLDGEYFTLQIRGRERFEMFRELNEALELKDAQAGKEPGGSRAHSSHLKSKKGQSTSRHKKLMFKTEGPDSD

- amount of the endogenous wild-type p53 protein (Western blot) (24 hours after addition, vs DMSO control): reduced
Structure (SMILES): CC(C)C[C@H](NC(=O)CNC(=O)c1cc(Cl)ccc1Cl)C(=O)NCCCCCCC(=O)Nc1ccc(C(=O)/C=C/c2ccc(I)cc2)cc1 [TIBC-CANDDY_MLN]
- amount of the wild-type p53 protein when proteasome inhibitor MLN2238 is added as well (rescue) (24 hours, both TIBC-CANDDY_MLN and MLN2238 added): increased as compared with the control (DMSO)

From patent US11007269B2, “P53 degradation inducing molecule and pharmaceutical composition” (Tokyo University of Science Foundation, priority 2016, dated 2021)
